Laboratory results published in patent US6737383B1, “Herbicidal oxadiazolidines” (priority 1999, dated 2004).

How the values were obtained:
blackgrass = assay: Test B pre/postemergence blackgrass; assay type: in vivo, Alopecurus myosuroides
Procedure, shortened: (§1)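 Herbicidal effect was estimated by eye on a ten-point control scale after plants spent twelve to sixteen days in a greenhouse following soil or foliar treatment. Foliar sprays targeted plants at one to four leaves; all doses were formulated in a non-phytotoxic solvent with surfactant.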

wild oat = assay: Test B pre/postemergence wild oat; assay type: in vivo, Avena fatua
Procedure, shortened: as §1

bamyardgrass = assay: Test B flood test barnyardgrass; assay type: in vivo, Echinochloa crus-galli
Procedure, shortened: (§2)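 Plants were grown to the 2-leaf stage before treatment with test chemical, then held in a greenhouse for twelve to sixteen days. Injury was visually rated against untreated controls on a 0–10 scale, where 0 is no effect and 10 is complete control.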

bedstraw = assay: Test B pre/postemergence bedstraw; assay type: in vivo, Galium aparine
Procedure, shortened: as §1

surinam grass = assay: Test B pre/postemergence surinam grass; assay type: in vivo, Brachiaria decumbens
Procedure, shortened: as §1

giant foxtail = assay: Test B pre/postemergence giant foxtail; assay type: in vivo, Setaria faberii
Procedure, shortened: as §1

crabgrass = assay: Test B pre/postemergence crabgrass; assay type: in vivo, Digitaria sanguinalis
Procedure, shortened: as §1

corn = assay: Test B pre/postemergence corn; assay type: in vivo, Zea mays
Procedure, shortened: as §1

pigweed = assay: Test B pre/postemergence pigweed; assay type: in vivo, Amaranthus retroflexus
Procedure, shortened: as §1

velvetleaf = assay: Test B pre/postemergence velvetleaf; assay type: in vivo, Abutilon theophrasti
Procedure, shortened: as §1

sugar beet = assay: Test B pre/postemergence sugar beet; assay type: in vivo, Beta vulgaris
Procedure, shortened: as §1

smallflower flatsedge = assay: Test B flood test smallflower flatsedge; assay type: in vivo, Cyperus difformis
Procedure, shortened: as §2

cocklebur = assay: Test B pre/postemergence cocklebur; assay type: in vivo, Xanthium strumarium
Procedure, shortened: as §1

soybean = assay: Test B pre/postemergence soybean; assay type: in vivo, Glycine max
Procedure, shortened: as §1

rice = assay: Test B flood test rice; assay type: in vivo, Oryza sativa
Procedure, shortened: as §2

purple nutsedge = assay: Test B pre/postemergence purple nutsedge; assay type: in vivo, Cyperus rotundus
Procedure, shortened: as §1

[1] = Preemergence, Rate 62 g/ha, scale of 0 to 10 where 0 is no effect and 10 is complete control
[2] = Preemergence, Rate 125 g/ha, 0 is no effect, 10 is complete control
[3] = Preemergence, Rate 250 g/ha, scale 0 to 10, 0 is no effect, 10 is complete control
[4] = Preemergence, Rate 500 g/ha, scale 0 to 10 (0 no effect, 10 complete control)
[5] = Rate 62 g/ha, Postemergence, scale of 0 to 10 where 0 is no effect and 10 is complete control
[6] = Rate 125 g/ha, Postemergence, scale 0 to 10
[7] = Rate 500 g/ha, Postemergence, scale 0 to 10
[8] = Rate 62 g/ha, headed Pre-emergence (flood test species), scale 0 to 10 (0 no effect, 10 complete control)
[9] = Rate 125 g/ha, Pre-emergence, flood test species, scale 0 to 10 where 0 is no effect and 10 is complete control
[10] = Rate 250 g/ha, Pre-emergence, flood-test species, scale 0 to 10, 0 is no effect, 10 is complete control
[11] = Rate 500 g/ha, headed Pre-emergence (flood test species), scale 0 to 10 (0 no effect, 10 complete control)

For `Cc1ccccc1-n1c(=O)on(C(=O)N(c2ccc(Cl)cc2Cl)C(C)C)c1=O` [Compound 185], which “Blackgrass plant response rating” value (blackgrass; [1]) is on record?
The value was 0.

What about the “Blackgrass plant response rating (0 to 10 scale)” value (blackgrass; [2]) of the same compound?
The value was 0.

And the “Blackgrass plant response rating” value (blackgrass; [3])?
The value was 0.

And the “Blackgrass plant response rating” value (blackgrass; [4])?
The value was 0.

And the “Blackgrass plant response rating” value (blackgrass; [5])?
The value was 0.

What about the “Blackgrass plant response rating” value (blackgrass; [6]) of the same compound?
Its value is 0.

And the “Plant response rating (0 to 10; 0 is no effect, 10 is complete control), Blackgrass” value (blackgrass; Rate 250 g/ha, Postemergence)?
Its value is 0.

And the “Blackgrass plant response rating” value (blackgrass; [7])?
The value was 0.

What about the “Wild oats plant response rating” value (wild oat; [1]) of the same compound?
The value was 0.

What about the “Wild oats plant response rating” value (wild oat; [3]) of the same compound?
Its value is 0.

And the “Wild oats plant response rating” value (wild oat; [4])?
The value was 0.

And the “Wild oats plant response rating” value (wild oat; [6])?
Its value is 0.

And the “Plant response rating (0 to 10; 0 is no effect, 10 is complete control), Wild oats” value (wild oat; Rate 250 g/ha, Postemergence)?
The value was 0.

What about the “Barnyardgrass plant response rating” value (bamyardgrass; [8]) of the same compound?
The value was 0.

And the “Barnyardgrass plant response rating” value (bamyardgrass; [9])?
Its value is 0.

And the “Barnyardgrass plant response rating” value (bamyardgrass; [10])?
The value was 0.

What about the “Plant response rating, Barnyardgrass” value (bamyardgrass; [11]) of the same compound?
Its value is 0.

What about the “Bedstraw plant response rating” value (bedstraw; [1]) of the same compound?
Its value is 0.

And the “Bedstraw plant response rating (0 to 10 scale)” value (bedstraw; [2])?
Its value is 0.

And the “Bedstraw plant response rating” value (bedstraw; [3])?
The value was 0.

And the “Bedstraw plant response rating” value (bedstraw; [4])?
The value was 0.

What about the “Bedstraw plant response rating” value (bedstraw; [5]) of the same compound?
The value was 0.

What about the “Bedstraw plant response rating” value (bedstraw; [6]) of the same compound?
The value was 0.

And the “Plant response rating (0 to 10; 0 is no effect, 10 is complete control), Bedstraw” value (bedstraw; Rate 250 g/ha, Postemergence)?
The value was 3.

And the “Bedstraw plant response rating” value (bedstraw; [7])?
Its value is 3.

What about the “B. signalgrass plant response rating” value (surinam grass; [1]) of the same compound?
The value was 0.

What about the “B. signalgrass plant response rating (0 to 10 scale)” value (surinam grass; [2]) of the same compound?
The value was 0.

What about the “B. signalgrass plant response rating” value (surinam grass; [3]) of the same compound?
Its value is 0.

And the “B. signalgrass plant response rating” value (surinam grass; [4])?
Its value is 0.

What about the “B. signalgrass plant response rating” value (surinam grass; [5]) of the same compound?
Its value is 0.

And the “B. signalgrass plant response rating” value (surinam grass; Rate 125 g/ha, Postemergence, scale 0 (no effect) to 10 (complete control))?
The value was 0.

What about the “Plant response rating, B. signalgrass” value (surinam grass; Rate 250 g/ha, Postemergence, scale 0 to 10, 0 is no effect, 10 is complete control) of the same compound?
Its value is 0.

What about the “B. signalgrass plant response rating” value (surinam grass; Rate 500 g/ha, Postemergence, scale 0 to 10, 0 no effect, 10 complete control) of the same compound?
Its value is 0.

And the “Giant foxtail plant response rating” value (giant foxtail; [1])?
The value was 0.

And the “Giant foxtail plant response rating (0 to 10 scale)” value (giant foxtail; [2])?
Its value is 5.

What about the “Giant foxtail plant response rating” value (giant foxtail; [3]) of the same compound?
The value was 9.

And the “Giant foxtail plant response rating” value (giant foxtail; [4])?
Its value is 9.

And the “Giant foxtail plant response rating” value (giant foxtail; [5])?
Its value is 0.

And the “Giant foxtail plant response rating” value (giant foxtail; [6])?
The value was 0.

And the “Plant response rating (0 to 10; 0 is no effect, 10 is complete control), Giant foxtail” value (giant foxtail; Rate 250 g/ha, Postemergence)?
Its value is 0.

What about the “Giant foxtail plant response rating” value (giant foxtail; [7]) of the same compound?
Its value is 1.

What about the “Crabgrass plant response rating” value (crabgrass; [1]) of the same compound?
Its value is 2.

What about the “Crabgrass plant response rating (0 to 10 scale)” value (crabgrass; [2]) of the same compound?
Its value is 6.

And the “Crabgrass plant response rating” value (crabgrass; [3])?
The value was 7.

And the “Crabgrass plant response rating” value (crabgrass; [4])?
Its value is 9.

And the “Crabgrass plant response rating” value (crabgrass; [5])?
Its value is 0.

What about the “Crabgrass plant response rating” value (crabgrass; [6]) of the same compound?
The value was 1.

What about the “Crabgrass plant response rating” value (crabgrass; [7]) of the same compound?
Its value is 1.

And the “Corn plant response rating” value (corn; [1])?
The value was 0.

And the “Corn plant response rating (0 to 10 scale)” value (corn; [2])?
The value was 0.

What about the “Corn plant response rating” value (corn; [3]) of the same compound?
The value was 0.

What about the “Corn plant response rating” value (corn; [4]) of the same compound?
Its value is 0.

What about the “Corn plant response rating” value (corn; [5]) of the same compound?
Its value is 0.

What about the “Corn plant response rating” value (corn; [6]) of the same compound?
Its value is 0.

And the “Plant response rating (0 to 10; 0 is no effect, 10 is complete control), Corn” value (corn; Rate 250 g/ha, Postemergence)?
Its value is 0.

What about the “Corn plant response rating” value (corn; [7]) of the same compound?
Its value is 0.

What about the “Redroot pigweed plant response rating” value (pigweed; [1]) of the same compound?
Its value is 0.

And the “Redroot pigweed plant response rating (0 to 10 scale)” value (pigweed; [2])?
The value was 0.

And the “Redroot pigweed plant response rating” value (pigweed; [3])?
The value was 0.

What about the “Redroot pigweed plant response rating” value (pigweed; [4]) of the same compound?
Its value is 0.

And the “Redroot pigweed plant response rating” value (pigweed; [5])?
Its value is 0.

What about the “Redroot pigweed plant response rating” value (pigweed; [6]) of the same compound?
Its value is 1.

What about the “Plant response rating (0 to 10; 0 is no effect, 10 is complete control), Redroot pigweed” value (pigweed; Rate 250 g/ha, Postemergence) of the same compound?
Its value is 3.

And the “Redroot pigweed plant response rating” value (pigweed; [7])?
The value was 4.

And the “Velvetleaf plant response rating” value (velvetleaf; [1])?
Its value is 0.

What about the “Velvetleaf plant response rating” value (velvetleaf; [3]) of the same compound?
The value was 0.

What about the “Velvetleaf plant response rating” value (velvetleaf; [4]) of the same compound?
The value was 0.

What about the “Velvetleaf plant response rating” value (velvetleaf; [6]) of the same compound?
Its value is 0.

And the “Plant response rating (0 to 10; 0 is no effect, 10 is complete control), Velvetleaf” value (velvetleaf; Rate 250 g/ha, Postemergence)?
The value was 0.

What about the “Sugarbeets plant response rating” value (sugar beet; [1]) of the same compound?
The value was 0.

What about the “Sugarbeets plant response rating (0 to 10 scale)” value (sugar beet; [2]) of the same compound?
Its value is 0.

And the “Sugarbeets plant response rating” value (sugar beet; [3])?
The value was 0.

And the “Sugarbeets plant response rating” value (sugar beet; [4])?
The value was 0.

What about the “Sugarbeets plant response rating” value (sugar beet; [5]) of the same compound?
Its value is 0.

What about the “Sugarbeets plant response rating” value (sugar beet; [6]) of the same compound?
The value was 0.

And the “Plant response rating (0 to 10; 0 is no effect, 10 is complete control), Sugarbeets” value (sugar beet; Rate 250 g/ha, Postemergence)?
The value was 0.

And the “Sugarbeets plant response rating” value (sugar beet; [7])?
The value was 0.

And the “S. Flatsedge plant response rating” value (smallflower flatsedge; [8])?
Its value is 0.

What about the “S. Flatsedge plant response rating” value (smallflower flatsedge; [9]) of the same compound?
Its value is 0.

And the “S. Flatsedge plant response rating” value (smallflower flatsedge; [10])?
Its value is 0.

And the “S. Flatsedge plant response rating” value (smallflower flatsedge; Rate 500 g/ha, Pre-emergence, flood test species, scale 0 to 10 (0 no effect, 10 complete control))?
Its value is 0.

What about the “Cocklebur plant response rating (0 to 10 scale)” value (cocklebur; [2]) of the same compound?
The value was 0.

And the “Cocklebur plant response rating” value (cocklebur; [3])?
Its value is 0.

What about the “Cocklebur plant response rating” value (cocklebur; [5]) of the same compound?
The value was 0.

What about the “Cocklebur plant response rating” value (cocklebur; [6]) of the same compound?
Its value is 0.

And the “Plant response rating (0 to 10; 0 is no effect, 10 is complete control), Cocklebur” value (cocklebur; Rate 250 g/ha, Postemergence)?
Its value is 0.

And the “Cocklebur plant response rating” value (cocklebur; [7])?
Its value is 2.

And the “Soybean plant response rating” value (soybean; [1])?
Its value is 0.

And the “Soybean plant response rating (0 to 10 scale)” value (soybean; [2])?
The value was 0.

And the “Soybean plant response rating” value (soybean; [3])?
Its value is 0.

What about the “Soybean plant response rating” value (soybean; [4]) of the same compound?
Its value is 0.

What about the “Soybean plant response rating” value (soybean; [5]) of the same compound?
Its value is 2.

What about the “Soybean plant response rating” value (soybean; [6]) of the same compound?
The value was 2.

What about the “Plant response rating (0 to 10; 0 is no effect, 10 is complete control), Soybean” value (soybean; Rate 250 g/ha, Postemergence) of the same compound?
The value was 3.

What about the “Soybean plant response rating” value (soybean; [7]) of the same compound?
Its value is 3.

And the “Rice plant response rating” value (rice; [8])?
The value was 0.

What about the “Rice plant response rating” value (rice; [9]) of the same compound?
The value was 0.

What about the “Rice plant response rating” value (rice; [10]) of the same compound?
Its value is 0.

And the “Plant response rating, Rice” value (rice; [11])?
The value was 0.

And the “Nutsedge plant response rating” value (purple nutsedge; [3])?
The value was 0.

And the “Nutsedge plant response rating” value (purple nutsedge; [4])?
Its value is 0.

And the “Nutsedge plant response rating” value (purple nutsedge; [5])?
Its value is 0.

What about the “Nutsedge plant response rating” value (purple nutsedge; [6]) of the same compound?
Its value is 0.

What about the “Plant response rating (0 to 10; 0 is no effect, 10 is complete control), Nutsedge” value (purple nutsedge; Rate 250 g/ha, Postemergence) of the same compound?
Its value is 0.

And the “Nutsedge plant response rating” value (purple nutsedge; [7])?
The value was 0.
